# Experiments:
# TAK1 = molecular target: T1, TAK1 (Homo sapiens, UniProt O43318); experiment: IP, in vitro kinase assay and Western blot of TAK1 activation in damaged PSC27 stromal cells; assay type: cell-based
# T1 construct: PSC27 cells were treated with bleomycin and cell lysates were subject to anti-p-TAK1-mediated IP precipitation; endogenous in cells; host or cells: PSC27 human prostate stromal cells
# T1 sequence (O43318 1-606): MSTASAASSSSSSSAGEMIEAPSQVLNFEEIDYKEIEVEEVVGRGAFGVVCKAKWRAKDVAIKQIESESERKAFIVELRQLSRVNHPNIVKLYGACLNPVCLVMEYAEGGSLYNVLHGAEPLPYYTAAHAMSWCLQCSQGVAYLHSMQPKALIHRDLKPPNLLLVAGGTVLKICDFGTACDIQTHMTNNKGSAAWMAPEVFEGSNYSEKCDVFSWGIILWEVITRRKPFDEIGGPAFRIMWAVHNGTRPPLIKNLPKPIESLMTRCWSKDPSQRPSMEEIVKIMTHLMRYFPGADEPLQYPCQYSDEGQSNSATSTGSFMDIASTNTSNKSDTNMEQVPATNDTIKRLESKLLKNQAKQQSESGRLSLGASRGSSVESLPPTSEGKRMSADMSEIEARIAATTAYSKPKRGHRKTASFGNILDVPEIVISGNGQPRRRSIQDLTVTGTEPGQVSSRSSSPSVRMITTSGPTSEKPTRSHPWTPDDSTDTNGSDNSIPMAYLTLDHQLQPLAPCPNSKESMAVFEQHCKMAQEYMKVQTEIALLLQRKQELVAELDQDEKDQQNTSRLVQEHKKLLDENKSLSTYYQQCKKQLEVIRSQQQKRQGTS
# Procedure: In the presence of the TAK1 inhibitor 5Z-7, PSC27 cells were treated with bleomycin and cell lysates were subject to anti-p-TAK1-mediated IP precipitation. IP products were analyzed by in vitro kinase assay, and MKK6 was used as TAK1 substrate. p38 phosphorylation was analyzed by Western blot with GAPDH as the loading control. In addition, IL-1α (20 ng/ml) was used to treat stromal cells and was further analyzed by similar IP and in vitro kinase assay.
# p38MAPK, JNK, ATM = experiment: Western blot of JNK, p38MAPK and ATM phosphorylation in damaged stromal cells; assay type: cell-based, human; settings: Day 7 after bleomycin and/or 5Z-7
# Procedure: The nitrocellulose filter membrane was blocked at room temperature for 1 h in the blocking solution (TBST containing 5% skim milk powder (0.1% Tween-20 in TBS)), incubated overnight at 4° C. in a primary antibody solution, rinsed at TBST room temperature for 3 times, each for 2 min. The corresponding secondary antibody conjugated with HRP prepared with the blocking solution was added, the filter membrane was incubated at room temperature for 0.5 h. The filter membrane was rinsed with PBST at room temperature for 3 times, each for 2 min.
# [1] = system: prostate cancer epithelial cells; experiment: Stromal-epithelial co-culture: PSC27 extracellular fluid on proliferation, migration, invasion of prostate cancer epithelial cells; assay type: cell-based, human; settings: extracellular fluid of bleomycin-damaged PSC27 treated with TAK1 inhibitor
# Procedure: c. Experimental Treatment In Vitro • 100 nM docetaxel (DTX), 100 nM paclitaxel (PTX), 200 nM vincristine (VCR), 50 μg/ml bleomycin (BLEO), 1 μM mitoxantrone (MIT), or 10 Gy ^137CS ionizating radiation (γ-radiation at 743 rad/min, RAD) was added to the culture medium when PSC27 cells grown to 80% (PSC27-Pre) to produce cell damage. After drug treatment for 6 hours, the cells were simply washed by PBS for 3 times and kept in the culture medium for 7 to 10 days, followed by subsequent experiments. 2. Plasmid Preparation and Lentiviral Transfection • Full-length human IKKα and Flag were cloned as a fusion protein between the restriction sites BamHI and XbaI in the expression vector pCR3.1. Full-length human mTOR and GST were cloned as a fusion protein between a pair of NotI restriction sites in the expression vector pcDNA3. Packaging cell line 293FT was used for cell transfection and lentivirus production. The sequences of small hairpin RNAs (shRNAs) for knocking out TRAF6 were as follows: • 5′-[…]-3′(SEQ ID NO: 1); and • 5′-[…]-3′ (SEQ ID NO: 2). • The sequences of small hairpin RNAs (shRNAs) for knocking out TAK1 were as follows: • 5′-[…]-3′(SEQ ID NO: 3); and • 5′-[…]-3′(SEQ ID NO: 4). • The sequences of small hairpin RNAs (shRNAs) for knocking out IL-1α were as follows: • 5′-[…]-3′(SEQ ID NO: 5); and • 5′-[…]-3′ (SEQ ID NO: 6). 3. Immunofluorescence and Histochemical Analysis • Mouse monoclonal antibody anti-phospho-Histone H2A.X (Ser139) (clone JBW301, Millipore) or mouse monoclonal antibody anti-Phosphor-53BP1 (Cat #sc-135748, Santa Cruz), and secondary antibody Alexa Fluor® 488 (or 594)-conjugated F(ab′)2 were added sequentially to slides on which cells were fixed. […] FV1000 laser scanning confocal microscopy (Olympus) was used to obtain cellular confocal fluorescence images to determine the extent of DNA damage. • Antibody anti-TAK1 used for histological IHC staining in clinical prostate, non-small cell lung cancer patients and breast cancer patients, was purchased from Proteintech, idib. […] Quantitative PCR for Measuring Gene Expression […]
# [2] = system: prostate cancer epithelial cell lines (BPH1, M12, PC3, DU145 and LNCaP); experiment: Chemotherapy resistance of cancer cells conferred by extracellular fluid of damaged PSC27 stromal cells; assay type: cell-based, human; settings: stromal cells treated with TAK1 inhibitor
# Procedure: c. Experimental Treatment In Vitro • 100 nM docetaxel (DTX), 100 nM paclitaxel (PTX), 200 nM vincristine (VCR), 50 μg/ml bleomycin (BLEO), 1 μM mitoxantrone (MIT), or 10 Gy ^137CS ionizating radiation (γ-radiation at 743 rad/min, RAD) was added to the culture medium when PSC27 cells grown to 80% (PSC27-Pre) to produce cell damage. After drug treatment for 6 hours, the cells were simply washed by PBS for 3 times and kept in the culture medium for 7 to 10 days, followed by subsequent experiments. 2. Plasmid Preparation and Lentiviral Transfection • Full-length human IKKα and Flag were cloned as a fusion protein between the restriction sites BamHI and XbaI in the expression vector pCR3.1. Full-length human mTOR and GST were cloned as a fusion protein between a pair of NotI restriction sites in the expression vector pcDNA3. Packaging cell line 293FT was used for cell transfection and lentivirus production. […] FV1000 laser scanning confocal microscopy (Olympus) was used to obtain cellular confocal fluorescence images to determine the extent of DNA damage. • Antibody anti-TAK1 used for histological IHC staining in clinical prostate, non-small cell lung cancer patients and breast cancer patients, was purchased from Proteintech, idib. […] Quantitative PCR for Measuring Gene Expression […]
compound,measurement,setting,value
"COc1cc(O)c2c(c1)/C=C/C[C@H](O)[C@H](O)C(=O)/C=C\C[C@H](C)OC2=O [5Z-7, 5z-7-oxozeaenol]",activation of TAK1 in damaged stromal cells,"TAK1; bleomycin-treated PSC27, 500 nM 5Z-7, IP and in vitro kinase assay with MKK6",largely abolished
same,physical interaction between TAK1 and TRAF6,TAK1; p-TAK1 antibody IP after bleomycin,abolished
same,phosphorylation of JNK and p38MAPK,"p38MAPK, JNK, ATM",decreased significantly
same,phosphorylation status of ATM stimulated by DNA damage,"p38MAPK, JNK, ATM",does not depend on whether TAK1 activity is inhibited
same,in vitro migration of prostate cancer epithelial cells promoted by stromal cell extracellular fluid,[1],significantly reduced
same,invasion of prostate cancer epithelial cells promoted by stromal cell extracellular fluid,[1],significantly weakened
same,proliferation of prostate cancer epithelial cells promoted by stromal cell extracellular fluid,[1],decreased significantly
same,resistance of cancer cells to docetaxel conferred by stromal cell extracellular fluid,[2]; docetaxel,attenuate the acquired resistance
same,resistance of cancer cells to mitoxantrone conferred by stromal cell extracellular fluid,[2]; mitoxantrone at IC50 concentration,significantly weakened

# — patent US11344601B2, “Tumor microenvironment-related target TAK1 and application thereof in inhibition of tumor” (Shanghai Institutes for Biological Sciences, Chinese …, priority 2017, dated 2022)
